# Test results as given in patent publication US8158794B2, “Hydroxyalkyl substituted imidazoquinoline compounds and methods” (3M Innovative Properties Company, priority 2005, dated 2012).
# Where a name gives a salt, the structure may show the parent alone.
# Test system: interferon (α) (IFN-α)
# Experiment: Cytokine induction in human cells: IFN-α secreted by PBMC (ELISA)
# Format: cell-based
# Details: 18 to 24 hours, lowest tested concentration inducing response over 20 pg/mL, median if more than one experiment, read-out: Minimum Effective Concentration (μM) IFN
# Text: (§1) An in vitro human blood cell system is used to assess cytokine induction. Activity is based on the measurement of interferon (α) and tumor necrosis factor (α) (IFN-α and TNF-α, respectively) secreted into culture media as described by Testerman et. al. in “Cytokine Induction by the Immunomodulators Imiquimod and S-27609”, Journal of Leukocyte Biology, 58, 365-372 (September, 1995).
# (§2) Whole blood from healthy human donors is collected by venipuncture into vacutainer tubes or syringes containing EDTA. Peripheral blood mononuclear cells (PBMC) are separated from whole blood by density gradient centrifugation using HISTOPAQUE-1077 (Sigma, St. Louis, Mo.) or Ficoll-Paque Plus (Amersham Biosciences Piscataway, N.J.). Blood is diluted 1:1 with Dulbecco's Phosphate Buffered Saline (DPBS) or Hank's Balanced Salts Solution (HBSS). Alternately, whole blood is placed in Accuspin (Sigma) or LeucoSep (Greiner Bio-One, Inc., Longwood, Fla.) centrifuge frit tubes containing density gradient medium. The PBMC layer is collected and washed twice with DPBS or HBSS and re-suspended at 4×10^6 cells/mL in RPMI complete. The PBMC suspension is added to 96 well flat bottom sterile tissue culture plates containing an equal volume of RPMI complete media containing test compound.
# (§3) The compounds are solubilized in dimethyl sulfoxide (DMSO). The DMSO concentration should not exceed a final concentration of 1% for addition to the culture wells. The compounds are generally tested at concentrations ranging from 30-0.014 μM. Controls include cell samples with media only, cell samples with DMSO only (no compound), and cell samples with reference compound.
# (§4) The solution of test compound is added at 60 μM to the first well containing RPMI complete and serial 3 fold dilutions are made in the wells. The PBMC suspension is then added to the wells in an equal volume, bringing the test compound concentrations to the desired range (usually 30-0.014 μM). The final concentration of PBMC suspension is 2×10^6 cells/mL. The plates are covered with sterile plastic lids, mixed gently and then incubated for 18 to 24 hours at 37° C. in a 5% carbon dioxide atmosphere.
# (§5) Following incubation the plates are centrifuged for 10 minutes at 1000 rpm (approximately 200×g) at 4° C. The cell-free culture supernatant is removed and transferred to sterile polypropylene tubes. Samples are maintained at −30 to −70° C. until analysis. The samples are analyzed for IFN-α by ELISA and for TNF-α by IGEN/BioVeris Assay.
# IFN-α concentration is determined with a human multi-subtype colorimetric sandwich ELISA (Catalog Number 41105) from PBL Biomedical Laboratories, Piscataway, N.J. Results are expressed in pg/mL.
# (§6) In total, the data output of the assay consists of concentration values of TNF-α and IFN-α(y-axis) as a function of compound concentration (x-axis).
# Analysis of the data has two steps. First, the greater of the mean DMSO (DMSO control wells) or the experimental background (usually 20 pg/mL for IFN-α and 40 pg/mL for TNF-α) is subtracted from each reading. If any negative values result from background subtraction, the reading is reported as “*”, and is noted as not reliably detectable. In subsequent calculations and statistics, “*”, is treated as a zero. Second, all background subtracted values are multiplied by a single adjustment ratio to decrease experiment to experiment variability. The adjustment ratio is the area of the reference compound in the new experiment divided by the expected area of the reference compound based on the past 61 experiments (unadjusted readings). […] The reference compound used is 2-[4-amino-2-ethoxymethyl-6,7,8,9-tetrahydro-α,α-dimethyl-1H-imidazo[4,5-c]quinolin-1-yl]ethanol hydrate (U.S. Pat. No. 5,352,784; Example 91) and the expected area is the sum of the median dose values from the past 61 experiments.
# The minimum effective concentration is calculated based on the background-subtracted, reference-adjusted results for a given experiment and compound. […]
row,Structure (SMILES),minimal effective concentration [µM]
1,Nc1nc2cc(-c3cccnc3)ccc2c2c1nc(CO)n2CCCCNC(=O)C1CCCC1 [Example 42],0.12

# Test system: tumor necrosis factor (α) (TNF-α)
# Experiment: Cytokine induction in human cells: TNF-α secreted by PBMC (ORIGEN M-Series immunoassay)
# Format: cell-based
# Details: 18 to 24 hours, lowest tested concentration inducing response over 40 pg/mL, median if more than one experiment, read-out: Minimum Effective Concentration (μM) TNF
# Text: as §1, §2, §3, §4, §5
# The TNF-α concentration is determined by ORIGEN M-Series Immunoassay and read on an IGEN M-8 analyzer from BioVeris Corporation, formerly known as IGEN International, Gaithersburg, Md. The immunoassay uses a human TNF-α capture and detection antibody pair (Catalog Numbers AHC3419 and AHC3712) from Biosource International, Camarillo, Calif. Results are expressed in pg/mL.
# as §6
# Analysis of the data has two steps. First, the greater of the mean DMSO (DMSO control wells) or the experimental background (usually 20 pg/mL for IFN-α and 40 pg/mL for TNF-α) is subtracted from each reading. If any negative values result from background subtraction, the reading is reported as “*”, and is noted as not reliably detectable. In subsequent calculations and statistics, “*”, is treated as a zero. Second, all background subtracted values are multiplied by a single adjustment ratio to decrease experiment to experiment variability. The adjustment ratio is the area of the reference compound in the new experiment divided by the expected area of the reference compound based on the past 61 experiments (unadjusted readings). […]
row,Structure (SMILES),minimal effective concentration [µM]
1,Nc1nc2cc(-c3cccnc3)ccc2c2c1nc(CO)n2CCCCNC(=O)C1CCCC1 [Example 42],3.33

# Test system: not given
# Experiment: not given
# Details: not given
row,Structure (SMILES),melting point [°C]
1,"Nc1nc2cc(-c3cccnc3)ccc2c2c1nc(CO)n2CC1CCOCC1 [Example 32, [4-Amino-7-pyridin-3-yl-1-(tetrahydro-2H-pyran-4-ylmethyl)-1H-imidazo[4,5-c]quinolin-2-yl]methanol]",260 to 262
2,CS(=O)(=O)NCCCCn1c(CO)nc2c(N)nc3cc(-c4cccnc4)ccc3c21 (hydrate or solvate) [Example 38],188 to 190
3,CC(C)NC(=O)N1CCC(Cn2c(CO)nc3c(N)nc4cc(-c5cccnc5)ccc4c32)CC1 [Example 36],182 to 184
4,CS(=O)(=O)N1CCC(Cn2c(CO)nc3c(N)nc4cc(-c5cccnc5)ccc4c32)CC1 [Example 34],196 to 198
5,CC(C)(O)Cn1c(CO)nc2c(N)nc3cc(-c4ccc(F)nc4)ccc3c21 (hydrate or solvate) [Example 37],111 to 114
6,CC(C)(O)Cn1c(CO)nc2c(N)nc3cc(-c4cncc(CO)c4)ccc3c21 (hydrate or solvate) [Example 33],180 to 182

# Results, then the molecule that gave them:
row,melting point [°C],Structure (SMILES)
1,241 to 242,Nc1nc2cc(-c3cccnc3)ccc2c2c1nc(CO)n2CCCCNC(=O)C1CCCC1 [Example 42]
2,> 300,CC(C)NC(=O)N1CCC(Cn2c(CO)nc3c(N)nc4cc(-c5cncc(CO)c5)ccc4c32)CC1 (as salt: HBr) [Example 46]
3,166 to 170,Nc1nc2cc(-c3cncc(CO)c3)ccc2c2c1nc(CO)n2CC1CCCCC1 (hydrate or solvate) [Example 49]
4,211 to 212,CCCC(=O)NCCCCn1c(CO)nc2c(N)nc3cc(-c4cccnc4)ccc3c21 (hydrate or solvate) [Example 40]
5,> 300,CC(C)C(=O)N1CCC(Cn2c(CO)nc3c(N)nc4cc(-c5cncc(CO)c5)ccc4c32)CC1 (as salt: HBr) [Example 45]
6,206 to 209,CCCNC(=O)NCCCCn1c(CO)nc2c(N)nc3cc(-c4cccnc4)ccc3c21 (hydrate or solvate) [Example 39]
7,225 to 227,Nc1nc2cc(-c3cccnc3)ccc2c2c1nc(CO)n2CCCCNC(=O)NC1CCCC1 (hydrate or solvate) [Example 41]
8,260 to 264,Nc1nc2cc(-c3cccc(C(=O)N4CCOCC4)c3)ccc2c2c1nc(CO)n2CC1CCCCC1 (as salt: HCl) (hydrate or solvate) [Example 50]
9,225 to 227,CC(C)C(=O)NCCCCn1c(CO)nc2c(N)nc3cc(-c4cccnc4)ccc3c21 (hydrate or solvate) [Example 43]
